Laboratory results as given in ChEMBL document CHEMBL3813664, “Synthesis and evaluation of biphenyl derivatives as potential downregulators of VEGF protein secretion and telomerase-related gene expressions” (Bioorg Med Chem, 2016).
In brackets after ≈: the same amount, converted by molar mass. Activity calls are given as the source filed them. The rule behind the calls is not given here.

Tests used:
HT-29 [1] = test: Downregulation of VEGFA-165 secretion in human HT-29 cells assessed as protein secretion levels at 20 ug/ml after 72 hrs by ELISA relative to control; type: functional
HT-29 [2] = test: Downregulation of c-Myc gene expression in human HT-29 cells assessed as gene expression levels at 20 ug/ml after 48 hrs by RT-qPCR analysis relative to control; type: functional
HT-29 [3] = test: Downregulation of VEGFA gene expression in human HT-29 cells assessed as gene expression levels at 20 ug/ml after 48 hrs by RT-qPCR analysis relative to control; type: functional
[4] = Therapeutic index, ratio of IC50 for HEK293 cells to IC50 for human HT-29 cells; type: cell-based; details: HEK293 cells versus HT-29 cells, read-out: Ratio IC50
HEK293 = test: Cytotoxicity against HEK293 cells assessed as reduction in cell growth after 3 days by MTT assay; type: cell-based; details: Homo sapiens, HEK293, 72 h
HT-29 [5] = test: Cytotoxicity against human HT-29 cells assessed as reduction in cell growth after 3 days by MTT assay; type: functional, cell-based; details: HT-29, 72 h
HT-29 [6] = test: Downregulation of TERT gene expression in human HT-29 cells assessed as gene expression levels at 20 ug/ml after 48 hrs by RT-qPCR analysis relative to control; type: functional
[7] = Therapeutic index, ratio of IC50 for HEK293 cells to IC50 for human MCF7 cells; type: cell-based; details: HEK293 cells versus MCF7 cells, read-out: Ratio IC50
MCF7 = test: Cytotoxicity against human MCF7 cells assessed as reduction in cell growth after 3 days by MTT assay; type: functional, cell-based; details: MCF7, 72 h
HT-29 [8] = test: Downregulation of VEGFA gene expression in human HT-29 cells assessed as gene expression levels at 15 ug/ml after 48 hrs by RT-qPCR analysis relative to control; type: functional
HT-29 [9] = test: Downregulation of VEGFA-165 secretion in human HT-29 cells assessed as protein secretion levels at 15 ug/ml after 72 hrs by ELISA relative to control; type: functional
HT-29 [10] = test: Downregulation of c-Myc gene expression in human HT-29 cells assessed as gene expression levels at 15 ug/ml after 48 hrs by RT-qPCR analysis relative to control; type: functional
HT-29 [11] = test: Downregulation of TERT gene expression in human HT-29 cells assessed as gene expression levels at 15 ug/ml after 48 hrs by RT-qPCR analysis relative to control; type: functional
HT-29 [12] = test: Downregulation of TERT gene expression in human HT-29 cells assessed as gene expression levels at 10 ug/ml after 48 hrs by RT-qPCR analysis relative to control; type: functional
HT-29 [13] = test: Downregulation of VEGFA gene expression in human HT-29 cells assessed as gene expression levels at 10 ug/ml after 48 hrs by RT-qPCR analysis relative to control; type: functional
HT-29 [14] = test: Downregulation of c-Myc gene expression in human HT-29 cells assessed as gene expression levels at 10 ug/ml after 48 hrs by RT-qPCR analysis relative to control; type: functional
HT-29 [15] = test: Downregulation of VEGFA-165 secretion in human HT-29 cells assessed as protein secretion levels at 10 ug/ml after 72 hrs by ELISA relative to control; type: functional
HT-29 [16] = test: Downregulation of c-Myc gene expression in human HT-29 cells assessed as gene expression levels at 3 ug/ml after 48 hrs by RT-qPCR analysis relative to control; type: functional
HT-29 [17] = test: Downregulation of VEGFA gene expression in human HT-29 cells assessed as gene expression levels at 3 ug/ml after 48 hrs by RT-qPCR analysis relative to control; type: functional
HT-29 [18] = test: Downregulation of VEGFA-165 secretion in human HT-29 cells assessed as protein secretion levels at 3 ug/ml after 72 hrs by ELISA relative to control; type: functional
HT-29 [19] = test: Downregulation of TERT gene expression in human HT-29 cells assessed as gene expression levels at 3 ug/ml after 48 hrs by RT-qPCR analysis relative to control; type: functional
HT-29 [20] = test: Downregulation of TERT gene expression in human HT-29 cells assessed as gene expression levels at 5 ug/ml after 48 hrs by RT-qPCR analysis relative to control; type: functional
HT-29 [21] = test: Downregulation of c-Myc gene expression in human HT-29 cells assessed as gene expression levels at 5 ug/ml after 48 hrs by RT-qPCR analysis relative to control; type: functional
HT-29 [22] = test: Downregulation of VEGFA-165 secretion in human HT-29 cells assessed as protein secretion levels at <1.1 ug/ml after 72 hrs by ELISA relative to control; type: functional, cell-based
HT-29 [23] = test: Downregulation of VEGFA-165 secretion in human HT-29 cells assessed as protein secretion levels at 5 ug/ml after 72 hrs by ELISA relative to control; type: functional
HT-29 [24] = test: Downregulation of VEGFA gene expression in human HT-29 cells assessed as gene expression levels at 5 ug/ml after 48 hrs by RT-qPCR analysis relative to control; type: functional

SMILES	selectivity ratio [4]	IC50 (HEK293) [mg/L]	IC50 (HT-29 [5]) [mg/L]	selectivity ratio [7]	IC50 (MCF7) [mg/L]	Activity (HT-29 [16]) [%]	Activity (HT-29 [17]) [%]	Activity (HT-29 [18]) [%]	Activity (HT-29 [19]) [%]	further results
COc1ccc(-c2ccc(O)cc2)cc1OC	> 4	> 100	26 (≈ 113 µM)	> 3	34 (≈ 148 µM)	–	–	–	–	Activity (HT-29 [1]): 55%; Activity (HT-29 [2]): 87%; Activity (HT-29 [3]): 41%; Activity (HT-29 [6]): 22%
COc1ccccc1-c1cccc(O)c1	2.3	50 (≈ 250 µM)	22 (≈ 110 µM)	1.1	44 (≈ 220 µM)	–	–	–	–	Activity (HT-29 [8]): 76%; Activity (HT-29 [9]): 31%; Activity (HT-29 [10]): 50%; Activity (HT-29 [11]): 62%
Nc1ccccc1-c1ccccc1	3.3	54.9 (≈ 324 µM)	16 (≈ 94.5 µM)	19	2.9 (≈ 17.1 µM)	–	–	–	–	Activity (HT-29 [8]): 65%; Activity (HT-29 [9]): 91%; Activity (HT-29 [10]): 53%; Activity (HT-29 [11]): 56%
COc1cccc(-c2cccc(O)c2)c1	2	34 (≈ 170 µM)	16 (≈ 79.9 µM)	1	33 (≈ 165 µM)	–	–	–	–	Activity (HT-29 [12]): 88%; Activity (HT-29 [13]): 21%; Activity (HT-29 [14]): 71%; Activity (HT-29 [15]): 31%
COc1ccc(-c2ccccc2N)cc1OC	3.3	49.9 (≈ 218 µM)	15 (≈ 65.4 µM)	3	18 (≈ 78.5 µM)	–	–	–	–	Activity (HT-29 [8]): 61%; Activity (HT-29 [9]): 56%; Activity (HT-29 [10]): 50%; Activity (HT-29 [11]): 86%
Oc1ccc(-c2ccccc2)cc1	2	45 (≈ 264 µM)	25 (≈ 147 µM)	1	47 (≈ 276 µM)	–	–	–	–	Activity (HT-29 [1]): 48%; Activity (HT-29 [2]): 55%; Activity (HT-29 [3]): 65%; Activity (HT-29 [6]): 81%
Oc1ccc(-c2ccccc2O)cc1	38	54 (≈ 290 µM)	1.4 (≈ 7.52 µM)	–	> 100	11	16	62	11	–
COc1cccc(-c2ccccc2)c1	5.1	5.5 (≈ 29.9 µM)	1.1 (≈ 5.97 µM)	0.1	47 (≈ 255 µM)	–	–	–	–	Activity (HT-29 [20]): 77%; Activity (HT-29 [21]): 81%; Activity (HT-29 [22]): inactive; Activity (HT-29 [23]): 57%; Activity (HT-29 [24]): 73%
COc1ccc(-c2cccc(N)c2)cc1OC	5	20 (≈ 87.2 µM)	4 (≈ 17.4 µM)	< 0.2	> 100	40	57	42	90	–
Nc1cccc(-c2ccc(O)cc2)c1	> 18	> 100	5.4 (≈ 29.2 µM)	> 15	6.5 (≈ 35.1 µM)	39	42	55	78	–
COc1ccc(-c2ccc(N)cc2)cc1OC	12	23 (≈ 100 µM)	2 (≈ 8.72 µM)	4	5.5 (≈ 24 µM)	92	48	48	100	–
Nc1ccccc1-c1cccc(O)c1	1.1	10.5 (≈ 56.7 µM)	9.2 (≈ 49.7 µM)	0.7	16 (≈ 86.4 µM)	38	54	48	77	–
